Source: ChEMBL document CHEMBL3885881, “DrugMatrix”

Species on record: Rattus norvegicus
Experiment: DrugMatrix - Regimen: Daily Repeat
Format: toxicity, organism-based, Sprague-Dawley
Set-up: regimen Daily Repeat, gender Male, age 6-8 weeks
Details: in vivo, po, route oral GAVAGE, vehicle .5 % CMC; for ABSOLUTE BASOPHIL / ABSOLUTE EOSINOPHIL / ABSOLUTE LYMPHOCYTE / ABSOLUTE MONOCYTE / ABSOLUTE SEGMENTED NEUTROPHIL / BASOPHIL / EOSINOPHIL / ERYTHROCYTE COUNT / HEMATOCRIT / HEMOGLOBIN / LEUKOCYTE COUNT / LYMPHOCYTE / MEAN CORPUSCULAR HEMOGLOBIN / MEAN CORPUSCULAR HEMOGLOBIN CONCENTRATION / MEAN CORPUSCULAR VOLUME / MONOCYTE / NEUTROPHIL / NUCLEATED RED BLOOD CELLS / PLATELET COUNT: tissue Blood; for ALANINE AMINOTRANSFERASE / ALBUMIN / ALKALINE PHOSPHATASE / ASPARTATE AMINOTRANSFERASE / BLOOD UREA NITROGEN / CARBON DIOXIDE / CHLORIDE / CHOLESTEROL / CREATINE PHOSPHOKINASE / CREATININE / GLUCOSE / LACTATE DEHYDROGENASE / LIPASE / PHOSPHORUS / POTASSIUM / SODIUM / TOTAL BILIRUBIN / TOTAL PROTEIN / URIC ACID: tissue Plasma
[1] = 500 mg/kg, 72 h, dose level Low, time 3 day
[2] = 500 mg/kg, 120 h, dose level Low, time 5 day
[3] = 2000 mg/kg, 72 h, dose level High, time 3 day
[4] = 2000 mg/kg, 120 h, dose level High, time 5 day

SMILES: NC[C@H]1CC[C@H](C(=O)O)CC1 [TRANEXAMIC ACID]
- ABSOLUTE BASOPHIL [1]: 0 CELLS/uL
- ABSOLUTE EOSINOPHIL [1]: 94.67 CELLS/uL
- ABSOLUTE LYMPHOCYTE [1]: 11832.33 CELLS/uL
- ABSOLUTE MONOCYTE [1]: 147 CELLS/uL
- ABSOLUTE SEGMENTED NEUTROPHIL [1]: 2626 CELLS/uL
- BASOPHIL [1]: 0%
- EOSINOPHIL [1]: 0.67%
- ERYTHROCYTE COUNT [1]: 5.82 x10E6/uL
- HEMATOCRIT [1]: 36.4%
- HEMOGLOBIN [1]: 14.33 G/DL
- LEUKOCYTE COUNT [1]: 14.7 x10E3/uL
- LYMPHOCYTE [1]: 80.33%
- MEAN CORPUSCULAR HEMOGLOBIN [1]: 24.63 pg
- MEAN CORPUSCULAR HEMOGLOBIN CONCENTRATION [1]: 39.43 G/DL
- MEAN CORPUSCULAR VOLUME [1]: 62.5 fL
- MONOCYTE [1]: 1%
- NEUTROPHIL [1]: 18%
- NUCLEATED RED BLOOD CELLS [1]: 0 /100WBC
- PLATELET COUNT [1]: 1287 x10E3/uL
- ALANINE AMINOTRANSFERASE [1]: 49.33 u/L
- ALBUMIN [1]: 4.3 G/DL
- ALKALINE PHOSPHATASE [1]: 364.33 u/L
- ASPARTATE AMINOTRANSFERASE [1]: 83 u/L
- BLOOD UREA NITROGEN [1]: 13.67 mg/dL
- CARBON DIOXIDE [1]: 25.33 mmol/L
- CHLORIDE [1]: 102 MEQ/L
- CHOLESTEROL [1]: 81 mg/dL
- CREATINE PHOSPHOKINASE [1]: 246 u/L
- CREATININE [1]: 0.17 mg/dL
- GLUCOSE [1]: 155 mg/dL
- LACTATE DEHYDROGENASE [1]: 225.67 u/L
- LIPASE [1]: 10 u/L
- PHOSPHORUS [1]: 14.07 mg/dL
- POTASSIUM [1]: 6.58 MEQ/L
- SODIUM [1]: 145.07 MEQ/L
- TOTAL BILIRUBIN [1]: 0.2 mg/dL
- TOTAL PROTEIN [1]: 6.07 G/DL
- URIC ACID [1]: 1.83 mg/dL
- ABSOLUTE BASOPHIL [2]: 0 CELLS/uL
- ABSOLUTE EOSINOPHIL [2]: 0 CELLS/uL
- ABSOLUTE LYMPHOCYTE [2]: 10774 CELLS/uL
- ABSOLUTE MONOCYTE [2]: 92 CELLS/uL
- ABSOLUTE SEGMENTED NEUTROPHIL [2]: 2034 CELLS/uL
- BASOPHIL [2]: 0%
- EOSINOPHIL [2]: 0%
- ERYTHROCYTE COUNT [2]: 5.74 x10E6/uL
- HEMATOCRIT [2]: 35.7%
- HEMOGLOBIN [2]: 14.13 G/DL
- LEUKOCYTE COUNT [2]: 12.9 x10E3/uL
- LYMPHOCYTE [2]: 83.67%
- MEAN CORPUSCULAR HEMOGLOBIN [2]: 24.67 pg
- MEAN CORPUSCULAR HEMOGLOBIN CONCENTRATION [2]: 39.57 G/DL
- MEAN CORPUSCULAR VOLUME [2]: 62.33 fL
- MONOCYTE [2]: 0.67%
- NEUTROPHIL [2]: 15.67%
- NUCLEATED RED BLOOD CELLS [2]: 0 /100WBC
- PLATELET COUNT [2]: 1198 x10E3/uL
- ALANINE AMINOTRANSFERASE [2]: 58.67 u/L
- ALBUMIN [2]: 4.17 G/DL
- ALKALINE PHOSPHATASE [2]: 364.67 u/L
- ASPARTATE AMINOTRANSFERASE [2]: 90.67 u/L
- BLOOD UREA NITROGEN [2]: 15 mg/dL
- CARBON DIOXIDE [2]: 25.67 mmol/L
- CHLORIDE [2]: 102 MEQ/L
- CHOLESTEROL [2]: 61 mg/dL
- CREATINE PHOSPHOKINASE [2]: 280.67 u/L
- CREATININE [2]: 0.21 mg/dL
- GLUCOSE [2]: 154 mg/dL
- LACTATE DEHYDROGENASE [2]: 250.33 u/L
- LIPASE [2]: 9.33 u/L
- PHOSPHORUS [2]: 12.3 mg/dL
- POTASSIUM [2]: 6.07 MEQ/L
- SODIUM [2]: 144.43 MEQ/L
- TOTAL BILIRUBIN [2]: 0.17 mg/dL
- TOTAL PROTEIN [2]: 5.9 G/DL
- URIC ACID [2]: 1.53 mg/dL
- ABSOLUTE BASOPHIL [3]: 0 CELLS/uL
- ABSOLUTE EOSINOPHIL [3]: 131 CELLS/uL
- ABSOLUTE LYMPHOCYTE [3]: 11124 CELLS/uL
- ABSOLUTE MONOCYTE [3]: 58.67 CELLS/uL
- ABSOLUTE SEGMENTED NEUTROPHIL [3]: 1786.33 CELLS/uL
- BASOPHIL [3]: 0%
- EOSINOPHIL [3]: 1%
- ERYTHROCYTE COUNT [3]: 5.38 x10E6/uL
- HEMATOCRIT [3]: 32.57%
- HEMOGLOBIN [3]: 12.97 G/DL
- LEUKOCYTE COUNT [3]: 13.1 x10E3/uL
- LYMPHOCYTE [3]: 84%
- MEAN CORPUSCULAR HEMOGLOBIN [3]: 24.13 pg
- MEAN CORPUSCULAR HEMOGLOBIN CONCENTRATION [3]: 39.83 G/DL
- MEAN CORPUSCULAR VOLUME [3]: 60.57 fL
- MONOCYTE [3]: 0.33%
- NEUTROPHIL [3]: 14.67%
- NUCLEATED RED BLOOD CELLS [3]: 0 /100WBC
- PLATELET COUNT [3]: 1338.33 x10E3/uL
- ALANINE AMINOTRANSFERASE [3]: 49.67 u/L
- ALBUMIN [3]: 3.9 G/DL
- ALKALINE PHOSPHATASE [3]: 293.67 u/L
- ASPARTATE AMINOTRANSFERASE [3]: 92 u/L
- BLOOD UREA NITROGEN [3]: 15.33 mg/dL
- CARBON DIOXIDE [3]: 25.33 mmol/L
- CHLORIDE [3]: 100 MEQ/L
- CHOLESTEROL [3]: 71.33 mg/dL
- CREATINE PHOSPHOKINASE [3]: 923.33 u/L
- CREATININE [3]: 0.15 mg/dL
- GLUCOSE [3]: 161 mg/dL
- LACTATE DEHYDROGENASE [3]: 154.33 u/L
- LIPASE [3]: 10.33 u/L
- PHOSPHORUS [3]: 12.03 mg/dL
- POTASSIUM [3]: 8.02 MEQ/L
- SODIUM [3]: 142.27 MEQ/L
- TOTAL BILIRUBIN [3]: 0.1 mg/dL
- TOTAL PROTEIN [3]: 5.47 G/DL
- URIC ACID [3]: 1.53 mg/dL
- ABSOLUTE BASOPHIL [4]: 0 CELLS/uL
- ABSOLUTE EOSINOPHIL [4]: 40.33 CELLS/uL
- ABSOLUTE LYMPHOCYTE [4]: 11921 CELLS/uL
- ABSOLUTE MONOCYTE [4]: 0 CELLS/uL
- ABSOLUTE SEGMENTED NEUTROPHIL [4]: 1438.67 CELLS/uL
- BASOPHIL [4]: 0%
- EOSINOPHIL [4]: 0.33%
- ERYTHROCYTE COUNT [4]: 5.89 x10E6/uL
- HEMATOCRIT [4]: 34.97%
- HEMOGLOBIN [4]: 14.13 G/DL
- LEUKOCYTE COUNT [4]: 13.4 x10E3/uL
- LYMPHOCYTE [4]: 89%
- MEAN CORPUSCULAR HEMOGLOBIN [4]: 24.03 pg
- MEAN CORPUSCULAR HEMOGLOBIN CONCENTRATION [4]: 40.43 G/DL
- MEAN CORPUSCULAR VOLUME [4]: 59.4 fL
- MONOCYTE [4]: 0%
- NEUTROPHIL [4]: 10.67%
- NUCLEATED RED BLOOD CELLS [4]: 0 /100WBC
- PLATELET COUNT [4]: 1475.33 x10E3/uL
- ALANINE AMINOTRANSFERASE [4]: 55 u/L
- ALBUMIN [4]: 4.23 G/DL
- ALKALINE PHOSPHATASE [4]: 354.33 u/L
- ASPARTATE AMINOTRANSFERASE [4]: 79 u/L
- BLOOD UREA NITROGEN [4]: 17.33 mg/dL
- CARBON DIOXIDE [4]: 25.67 mmol/L
- CHLORIDE [4]: 102 MEQ/L
- CHOLESTEROL [4]: 64.67 mg/dL
- CREATINE PHOSPHOKINASE [4]: 364.33 u/L
- CREATININE [4]: 0.17 mg/dL
- GLUCOSE [4]: 150 mg/dL
- LACTATE DEHYDROGENASE [4]: 135.67 u/L
- LIPASE [4]: 10 u/L
- PHOSPHORUS [4]: 12.53 mg/dL
- POTASSIUM [4]: 7.4 MEQ/L
- SODIUM [4]: 145 MEQ/L
- TOTAL BILIRUBIN [4]: 0.2 mg/dL
- TOTAL PROTEIN [4]: 6.1 G/DL
- URIC ACID [4]: 2.6 mg/dL
